Columns and labels:
cyclooxygenase 2 (COX-2) = assay: Procedure I: ability of the compounds to inhibit cyclooxygenase 2 (6217/6218); type: biochemical, Sheep; details: Wh Cell
cyclooxygenase 1 (COX-1) = assay: Procedure II: cyclooxygenase 1 activity (6226); type: biochemical, Rat; details: RBL-1 cell homogenate supernatant
Description: [Worded in the source for another target; this target is reported under the same test.] Rat basophilic leukemia cells (RBL-1; 5×10^7 viable cells/mL) were disrupted by homogenization on ice (four 20 sec bursts) with a Brinkman polytron. […] The pellet was discarded and the supernatant was saved as the source of enzymes. The supernatant was pre-incubated for five minutes at 37° C. in the presence of 2 mM of CaCl2 and compound or vehicle (1% DMSO). The conversion of AA into products by CO and LO was initiated by adding 10 μL (50 μCi) of 1-^14 C-AA to each tube and incubated at 37° C. for 20 minutes. The reaction was stopped by adjusting the pH of each sample to 3 to 3.5 with 2 M formic acid. Samples were extracted with three volumes of chloroform to isolate the products of 5-LO formed during the reaction. Fractions were dried under nitrogen, then resuspended in 40 μL of chloroform and spotted onto silica gel HL plates.
The plates were developed in A-9 solvent. The dried plates were analyzed using a Bioscan Imaging TLC scanner to determine the percentage of radiolabelled AA converted to 5-HETE (LO product) in each sample. The percentage of inhibition was calculated by:
[1-(5-HETE test)]/5-HETE control×100=% inhibition The IC50 was determined using a curve fit in Cricket Graph (Computer Associated), which provided the equation of the regressed line used in the calculation.

SMILES	IC50 (cyclooxygenase 2 (COX-2))	IC50 (cyclooxygenase 1 (COX-1))
O=C(NNc1ccc(Cl)cc1)c1ccc(Cl)cc1 [Example 1]	0.34 µM	> 10 µM
COc1ccc(C(=O)NNc2ccccc2)cc1 [Example 11]	> 10 µM	> 10 µM
CS(=O)(=O)c1ccc(NNC(=O)c2ccccc2)cc1 [Example 6]	> 10 µM	> 10 µM
CS(=O)(=O)c1ccc(NNC(=O)c2ccc(Cl)cc2)cc1 [Example 8]	> 10 µM	> 10 µM
Cc1ccc(NNC(=O)c2ccccc2)cc1 [Example 4]	0.33 µM	> 10 µM
O=C(NNc1ccc(Cl)cc1)c1ccccc1 [Example 5]	0.53 µM	> 10 µM
Cc1ccc(NNC(=O)c2ccc(Cl)cc2)cc1 [Example 7]	0.01 µM	> 10 µM
O=C(NNc1ccccc1)c1ccccc1 [Example 2]	10 µM	> 10 µM
COc1ccc(NNC(=O)c2ccc(Cl)cc2)cc1 [Example 10]	0.13 µM	
COc1ccc(C(=O)NNc2ccc(Cl)cc2)cc1 [Example 9]	0.47 µM	> 10 µM
COc1ccc(NNC(=O)c2ccccc2)cc1 [Example 12]	0.18 µM	> 10 µM
O=C(NNc1ccccc1)c1ccc(Cl)cc1 [Example 3]	0.33 µM	> 10 µM

From patent US6077869A, “Aryl phenylhydrazides as selective COX-2 inhibitors for treatment of inflammation” (Ortho-McNeil Pharmaceutical, Inc., priority 1999, dated 2000)
